In patent EP0094564A2, “Azolyl-methyl oxiranes, their preparation and use as medicaments and plant protecting agents” (BASF Aktiengesellschaft, priority 1982, dated 1983):
In brackets after ≈: the same amount, converted by molar mass.

Legend:
[1] = system: Cand.alb. H; assay: Candida albicans pseudomycelium/mycelium phase test, MIC; type: cell-based; conditions: in vitro, column H, read-out: Minimale Hemmkonzentration (MHK) Cand.alb. H
From the text: (§1) Die Wirkung gegen Dermatophyten, Bakterien und Protozonen kann nach Methoden, wie sie beispielsweise in P. Klein, Bakteriologische Grundlagen der chemotherapeutischen Laboratoriumspraxis, Springer-Verlag Berlin, 1957, beschrieben wird, aufgezeigt werden. Die überraschende Wirkung gegenüber Hefen wurde im Pseudomyzel- und Myzelphasentest mit Candida albicans nachgewiesen (vgl. DE-OS 30 10 093). Es wurde geprüft, welche minimalen Hemmkonzentrationen (MHK-Werte) im Agardilutionstest erreicht werden. In der Tabelle 1 sind die Ergebnisse zusammengefaßt.

[2] = system: Trichom. vag.; assay: Minimal inhibitory concentration in vitro (protozoa); type: cell-based; conditions: read-out: Minimale Hemmkonzentration (MHK) Trichom. vag.
From the text: as §1

[3] = system: Epid. flocc. 157; assay: Agar dilution test, minimal inhibitory concentration in vitro; type: cell-based; conditions: read-out: Minimale Hemmkonzentration (MHK) Epid. flocc. 157
From the text: as §1

[4] = system: Aps.fum. 2; assay: as above; type: cell-based; conditions: read-out: Minimale Hemmkonzentration (MHK) Aps.fum. 2
From the text: as §1

[5] = system: Mucor pus. 6; assay: as above; type: cell-based; conditions: read-out: Minimale Hemmkonzentration (MHK) Mucor pus. 6
From the text: as §1

[6] = system: Staph. aur. SG 511; assay: as above; type: cell-based; conditions: read-out: Minimale Hemmkonzentration (MHK) Staph. aur. SG 511
From the text: as §1

[7] = system: Strept. faec. 8043; assay: as above; type: cell-based; conditions: read-out: Minimale Hemmkonzentration (MHK) Strept. faec. 8043
From the text: as §1

[8] = system: Abs. corym. 1; assay: as above; type: cell-based; conditions: read-out: Minimale Hemmkonzentration (MHK) Abs. corym. 1
From the text: as §1

[9] = system: Trichoph. ment. 21; assay: as above; type: cell-based; conditions: read-out: Minimale Hemmkonzentration (MHK) Trichoph. ment. 21
From the text: as §1

[10] = system: Microsp. ferrug. 5; assay: as above; type: cell-based; conditions: read-out: Minimale Hemmkonzentration (MHK) Microsp. ferrug. 5
From the text: as §1

[11] = system: E.coli muta-flor; assay: as above; type: cell-based; conditions: Escherichia coli, read-out: Minimale Hemmkonzentration (MHK) E.coli muta-flor
From the text: as §1

[12] = system: Cand.alb. M; assay: Candida albicans pseudomycelium/mycelium phase test, MIC (column M); type: cell-based; conditions: in vitro, read-out: Minimale Hemmkonzentration (MHK) Cand.alb. M
From the text: as §1

[13] = system: Botrytis cinerea; assay: Versuch 4: activity against Botrytis cinerea on paprika seedlings; type: in vivo; conditions: 0,05 %ige Spritzbrühe; sprayed before inoculation; assessed after 5 days; value given as 'beispielsweise'
From the text: Paprikasämlinge der Sorte "Neusiedler Ideal Elite" wurden, nachdem sich 4 bis 5 Blätter gut entwickelt hatten, mit wäßrigen Suspensionen, die 80 % Wirkstoff und 20 % Emulgiermittel in der Trockensubstanz enthielten, tropfnaß gespritzt. Nach dem Antrocknen des Spritzbelages wurden die Pflanzen mit einer Konidienaufschwemmung des Pilzes Botrytis cenerea besprüht und bei 22 bis 24 C in eine Kammer mit hoher Luftfeuchtigkeit gestellt. Nach 5 Tagen hatte sich die Krankheit auf den unbehandelten Kontrollpflanzen so stark entwickelt, daß die entstandenen Blattnekrosen den überwiegenden Teil der Blätter bedeckten.

[14] = system: Gurkenmehltau (Erysiphe cichoracearum); assay: Versuch 3: activity against cucumber powdery mildew on cucumber seedlings; type: in vivo; conditions: 0,025 %ige Spritzbrühe; sprayed about 20 h after inoculation; assessed after 21 days; value given as 'beispielsweise'
From the text: Blätter von in Töpfen gewachsenen Gurkenkeimlingen der Sorte "Chinesische Schlange" wurden im Zweiblattstadium mit einer Sporensuspension des Gurkenmehltaus (Erysiphe cichoracearum) besprüht. Nach etwa 20 Stunden wurden die Versuchspflanzen mit wäßriger Spritzbrühe, die 80 % Wirkstoff und 20 % Emulgiermittel in der Trockensubstanz enthielt, bis zur Tropfnässe besprüht. Nach dem Antrocknen des J Spritzbelages wurden sie anschließend im Gewächshaus bei Temperaturen zwischen 20 und 22^00 und 70 bis 80 % relativer Luftfeuchtigkeit aufgestellt. Zur Beurteilung der Wirksamkeit der neuen Stoffe wurde das Ausmaß der Pilzentwicklung nach 21 Tagen beurteilt.

[15] = system: Weizenbraunrost (Puccinia recondita); assay: Versuch 2: activity against wheat brown rust on wheat seedlings; type: in vivo; conditions: 0,025; 0,006; 0,0015 %ige Spritzbrühen; sprayed 24 h after inoculation; assessed after 8 days; value given as 'beispielsweise'
Experimental: Blätter von in Töpfen gewachsenen Weizensämlingen der Sorte "Jubilar" wurden mit Sporen des Braunrostes (Puccinia recondita) bestäubt. Danach wurden die Töpfe für 24 Stunden bei 20 bis 22°C in eine Kammer mit hoher Luftfeuchtigkeit (90 bis 95 %) gestellt. Während dieser Zeit keimten die Sporen aus und die Keimschläuche drangen in das Blattgewebe ein. Die infizierten Pflanzen wurden anschließend mit wäßrigen Spritzbrühen, die 80 % Wirkstoff und 20 % Emulgiermittel in der Trockensubstanz enthielten, tropfnaß gespritzt. Nach dem Antrocknen des Spritzbelages wurden die Versuchspflanzen im Gewächshaus bei Temperaturen zwischen 20 und 22°C und 65 bis 70 % relativer Luftfeuchte aufgestellt. Nach 8 Tagen wurde das Ausmaß der Rostpilzentwicklung auf den Blättern ermittelt.

[16] = system: Trametes versicolor; assay: Versuch 6: fungal growth on malt extract agar containing active ingredient; type: cell-based; set-up: key: 0 = kein Pilzwachstum (Pilzmyzel abgetötet); 1 = geringes Pilzwachstum (bis 1/3 der Agaroberfläche bewachsen); 3 = mittleres Pilzwachstum (bis 2/3 der Agaroberfläche bewachsen); 5 = ungehemmtes Pilzwachstum (gesamte Agaroberfläche bewachsen); conditions: 40 ppm in 5 % malt extract agar; 5 days at 25 °C; growth score
From the text: (§2) Die Wirkstoffe werden in Aceton gelöst, in Mengen von 40 ppm einem verflüssigten 5 %igen Malzextraktagar zugesetzt. Der Agar wird in Petrischalen ausgegossen und nach dem Erstarren werden die fungizidhaltigen Nähragarplatten zentral mit Myzel der holzzerstörenden Pilze Coniophora puteana und Trametes versicolor, des Moderfäule und Stockflecken verursachenden Pilzes Chaetomium globosum sowie mit Sporen des grünen Holzschimmels Trichoderma viride beimpft.
(§3) Nach fünftägiger Bebrütung der Schalen bei 25 °C wird die Entwicklung der Pilzkolonien auf dem Nährboden im Vergleich mit der Kontrolle (ohne Wirkstoff-Zusatz) beurteilt: • 0 = kein Pilzwachstum (Pilzmyzel abgetötet) • 1 = geringes Pilzwachstum (bis 1/3 der Agaroberfläche bewachsen) • 3 = mittleres Pilzwachstum (bis 2/3 der Agaroberfläche bewachsen) • 5 = ungehemmtes Pilzwachstum (gesamte Agaroberfläche bewachsen)

[17] = system: Chaetomium globosum; assay: as above; type: cell-based; set-up: key: 0 = kein Pilzwachstum (Pilzmyzel abgetötet); 1 = geringes Pilzwachstum (bis 1/3 der Agaroberfläche bewachsen); 3 = mittleres Pilzwachstum (bis 2/3 der Agaroberfläche bewachsen); 5 = ungehemmtes Pilzwachstum (gesamte Agaroberfläche bewachsen); conditions: 40 ppm in 5 % malt extract agar; 5 days at 25 °C; growth score
From the text: as §2, §3

[18] = system: Coniophora puteana; assay: as above; type: cell-based; set-up: key: 0 = kein Pilzwachstum (Pilzmyzel abgetötet); 1 = geringes Pilzwachstum (bis 1/3 der Agaroberfläche bewachsen); 3 = mittleres Pilzwachstum (bis 2/3 der Agaroberfläche bewachsen); 5 = ungehemmtes Pilzwachstum (gesamte Agaroberfläche bewachsen); conditions: 40 ppm in 5 % malt extract agar; 5 days at 25 °C; growth score
From the text: as §2, §3

[19] = system: Trichoderma viride; assay: as above; type: cell-based; set-up: key: 0 = kein Pilzwachstum (Pilzmyzel abgetötet); 1 = geringes Pilzwachstum (bis 1/3 der Agaroberfläche bewachsen); 3 = mittleres Pilzwachstum (bis 2/3 der Agaroberfläche bewachsen); 5 = ungehemmtes Pilzwachstum (gesamte Agaroberfläche bewachsen); conditions: 40 ppm in 5 % malt extract agar; 5 days at 25 °C; growth score
From the text: as §2, §3

[20] = system: Weizenmehltau (Erysiphe graminis var. tritici); assay: Versuch 1: activity against wheat powdery mildew on wheat seedlings; type: in vivo; conditions: 0,025; 0,006; 0,0015 %ige Spritzbrühen; sprayed 24 h before inoculation; assessed after 7 days; value given as 'beispielsweise'
Experimental: Blätter von in Töpfen gewachsenen Weizenkeimlingen der Sorte "Jubilar" wurden mit wäßriger Spritzbrühe, die 80 % (Gew.%) Wirkstoff und 20 % Emulgiermittel in der Trockensubstanz enthielt, besprüht und 24 Stunden nach dem Antrocknen des Spritzbelages mit Oidien (Sporen) des Weizenmehltaus (Erysiphe graminis var. tritici) bestäubt. Die Versuchspflanzen wurden anschließend im Gewächshaus bei Temperaturen zwischen 20 und 22 °C und 75 bis 80 % relativer Luftfeuchtigkeit aufgestellt. Nach 7 Tagen wurde das Ausmaß der Mehltauentwicklung ermittelt.

Row | Structure (SMILES) | fungizide Wirkung gegen Botrytis cinerea an Paprika [13] [%] | fungizide Wirkung gegen Gurkenmehltau [14] [%] | fungizide Wirkung gegen Weizenbraunrost [15] [%] | Wirksamkeit gegen Trametes versicolor [16] | Wirksamkeit gegen Chaetomium globosum [17] | Wirksamkeit gegen Coniophora puteana [18] | Wirksamkeit gegen Trichoderma viride [19] | further results
1 | Clc1ccc(C2OC2(Cn2ccnc2)c2ccc(Br)cc2)c(Cl)c1 (single isomer, unassigned) [Beispiel 7] |  |  |  |  |  |  |  | MIC [1]: 16 µg/mL (≈ 37.7 µM); MIC [2]: > 16 µg/mL; MIC [3]: 1 µg/mL (≈ 2.36 µM); MIC [4]: 4 µg/mL (≈ 9.43 µM); MIC [5]: 2 µg/mL (≈ 4.72 µM); MIC [6]: 16 µg/mL (≈ 37.7 µM); MIC [7]: 16 µg/mL (≈ 37.7 µM); MIC [8]: 1 µg/mL (≈ 2.36 µM); MIC [9]: 1 µg/mL (≈ 2.36 µM); MIC [10]: 0.25 µg/mL (≈ 0.589 µM); MIC [11]: > 128 µg/mL; MIC [12]: 0.0156 µg/mL (≈ 0.0368 µM)
2 | Clc1ccc(C2OC2(Cn2cncn2)c2ccc(Br)cc2)c(Cl)c1 (single isomer, unassigned) [Beispiel 10] | 97 | 100 | 100 | 0 | 0 | 0 | 0 | 
3 | CC(C)(C)C1(Cn2ccnc2)OC1c1ccc(Cl)cc1 (single isomer, unassigned) [Beispiel 14] |  | 100 |  | 0 | 0 | 0 | 0 | 
4 | Fc1ccc(C2OC2(Cn2cncn2)c2ccc(Cl)cc2)cc1 (single isomer, unassigned) [Beispiel 45] |  | 100 |  | 0 | 1 | 0 | 0 | 
5 | Clc1ccc(C2(Cn3ccnc3)OC2c2ccccc2)cc1 (single isomer, unassigned) [Beispiel 9] |  |  |  |  |  |  |  | MIC [1]: > 1 µg/mL; MIC [2]: > 16 µg/mL; MIC [3]: 1 µg/mL (≈ 3.22 µM); MIC [4]: 16 µg/mL (≈ 51.5 µM); MIC [5]: 2 µg/mL (≈ 6.44 µM); MIC [6]: 128 µg/mL (≈ 412 µM); MIC [7]: 128 µg/mL (≈ 412 µM); MIC [8]: 4 µg/mL (≈ 12.9 µM); MIC [9]: 1 µg/mL (≈ 3.22 µM); MIC [10]: 0.25 µg/mL (≈ 0.804 µM); MIC [11]: > 128 µg/mL
6 | Clc1ccc(C2(Cn3ccnc3)OC2c2ccc(Br)cc2)cc1 (single isomer, unassigned) [Beispiel 48] |  |  |  | 0 | 0 | 0 | 0 | 
7 | Clc1ccc(C2OC2(Cn2cncn2)c2ccc(Br)cc2)cc1 (single isomer, unassigned) [Beispiel 44] | 97 | 100 | 100 | 0 | 1 | 0 | 0 | fungizide Wirkung gegen Weizenmehltau [20]: 100%
8 | CC1(Cn2cncn2)OC1c1ccc(Cl)cc1Cl (single isomer, unassigned) [Beispiel 23] |  |  |  | 0 | 0 | 0 | 0 | 
9 | OC(Cn1ccnc1)c1ccc(Cl)cc1Cl (stereo not shown) [Wirkstoff A, 1-(2,4-Dichlorphenyl)-2-(imidazol-1-yl)-ethan-1-ol, reference compound] | 70 |  | 50 |  |  |  |  | fungizide Wirkung gegen Weizenmehltau [20]: 90%
10 | CC(C)(C)C1(Cn2cncn2)OC1c1ccccc1 (single isomer, unassigned) [Beispiel 15] |  | 100 |  | 0 | 3 | 0 | 1 | 
11 | Clc1ccc(C2(Cn3cncn3)OC2c2ccc(Br)cc2)cc1 (single isomer, unassigned) [Beispiel 46] | 97 |  | 100 | 0 | 0 | 0 | 0 | fungizide Wirkung gegen Weizenmehltau [20]: 100%
12 | Clc1ccc(C2OC2(Cn2ccnc2)c2ccccc2)c(Cl)c1 (single isomer, unassigned) [Beispiel 6] | 97 | 100 | 100 |  |  |  |  | MIC [1]: 32 µg/mL (≈ 92.7 µM); MIC [2]: > 16 µg/mL; MIC [4]: 0.0625 µg/mL (≈ 0.181 µM); MIC [5]: 4 µg/mL (≈ 11.6 µM); MIC [6]: 16 µg/mL (≈ 46.3 µM); MIC [7]: 16 µg/mL (≈ 46.3 µM); MIC [8]: 8 µg/mL (≈ 23.2 µM); MIC [10]: 0.0625 µg/mL (≈ 0.181 µM); MIC [11]: > 128 µg/mL; MIC [12]: < 0.0039 µg/mL
13 | O=C(Cn1cncn1)c1ccc(Cl)cc1Cl [Wirkstoff B, (2,4-Dichlorphenyl)-1,2,4-triazol-1-yl-methylketon, reference compound] | 70 |  | 50 |  |  |  |  | fungizide Wirkung gegen Weizenmehltau [20]: 90%
14 | Clc1ccc(C2(Cn3ccnc3)OC2c2ccc(Br)cc2)c(Cl)c1 (single isomer, unassigned) [Beispiel 49] |  |  |  | 0 | 1 | 0 | 0 | 
